According to US11203576B2, “Aurora kinase and Janus kinase inhibitors for prevention of graft versus host disease” (H. LEE MOFFITT CANCER CENTER AND RESEARCH INSTITUTE, INC., priority 2016, dated 2021):
Like-named read-outs stand apart in the source and are kept apart here.

Legend:
[1] = test system: T-cells allostimulated by dendritic cells (DC); assay: Allogeneic mixed leukocyte reaction (alloMLR), T-cell proliferation; format: cell-based, human
Procedure: Bulk donor T-cells were allostimulated with allogeneic DCs (DC:T-cell ratio of 1:30) as previously described (OneBlood, Tampa, Fla.)(15, 16, 20). […] As indicated, alloMLRs consisting of Treg depleted, naïve CD4^+ T-cells (Miltenyi Biotec Inc, San Diego, Calif.) were treated with a combination of ARL67156 (CD39 inhibitor, 125 μM, Sigma), AJI, or DMSO on day 0 to study the role of CD39 and ATP in this system. T-cell proliferation was measured on day 5 by a colorimetric assay (CellTiter 96 Aqueous One Solution Cell Proliferation Assay [MTS]; or CellTiter Blue, Promega, Madison, Wis.). Absorbance/optical density (OD) was analyzed at 490 nm or 590 nm, respectively. Proliferation (%)=(OD treated alloMLR−OD T-cells alone)/(OD DMSO alloMLR−OD T-cells alone)×100.

CD39 on iTreg = assay: ATP hydrolysis assay; format: cell-based, human; details: ARL67156 125 μM
Procedure: iTregs generated in the presence of AJI-241 (750 nM) or DMSO were plated in V-bottom 96 well plates in serum free media at a concentration of 75,000 cells per 100 μL. ARL67156 (125 μM) was added or not as indicated. A fixed dose of ATP (50 μM) was added to the cells and incubated at 37° C. for 45 minutes. ATP consumption was measured by a luminescence assay per the manufacturer's instructions (Promega, CellTiter-Glo Luminescent Cell Viability Assay) and read by a spectrofluorimeter. Percent consumption was calculated as (luminescence of test supernatant/luminescence of 50 μM ATP cell-free control supernatant)×100.

STAT3 (target of JAK2) = assay: STAT3 phosphorylation in T-cells (flow cytometry); format: cell-based, human; details: in vitro, DC- or IL-6-stimulated, vs DMSO
Procedure: IL-6-induced pSTAT3 or IL-2-induced pSTAT5 (Y694) was measured by flow cytometry.

pSTAT5 (Y694) = assay: IL-2-induced STAT5 phosphorylation in T-cells; format: cell-based, human; details: vs DMSO or unstimulated controls
Procedure: As indicated, T cells were serum-starved in RPMI treated with DMSO diluent control, alisertib, TG101348, a combination of both inhibitors, AJI-214, or AJI-100 for 4 hours. IL-6-induced pSTAT3 or IL-2-induced pSTAT5 (Y694) was measured by flow cytometry.

iTreg = iTreg differentiation and potency; format: cell-based, human; details: for iTreg:allo Tconv ratio: 5-day MLRs; for iTreg:allo Tconv ratio / iTreg differentiation / absolute numbers of iTregs: vs DMSO; for iTreg differentiation / absolute numbers of iTregs: Treg-depleted naïve CD4+ T-cells, allogeneic DCs, 5 days; for suppressive capacity of iTregs generated in presence of inhibitor: standard suppression assay, no additional inhibitor added
Procedure: On day 5, iTregs were isolated and washed to minimize drug carry-over as reported. The T cells were harvested and surface-stained on day 5 for CD3, CD4, CD25, and CD127, followed by fixation and permeabilization (eBioscience) and Foxp3 staining. The absolute number of iTreg was calculated by flow cytometry using CountBright beads (Life Technologies). The purified iTregs were titrated against alloMLRs consisting of responder CD4+CD25− T cells (5×10^4) from the iTregs donor and fresh allogeneic DCs (1.6×10^3) to determine suppressive potency. T cell proliferation was determined by pulsing cells with [^3H]thymidine ([…]). Surface expression of CD39 and LAG3 was evaluated on the iTregs. iTregs production of CTLA4 was assessed by intracellular staining after a 5-hour treatment of PMA/ionomycin, with GolgiStop added during the last 4 hours of incubation. iTregs synthesis of IL-10 and TGF-β (Quansys Biosciences) was quantified from supernatants using multiplex cytokine assays after PMA/ionomycin stimulation.

RORgammaT = RORgammaT expression by RT-PCR; format: cell-based, human; details: TH17-polarizing medium, 5 days, vs DMSO
[2] = test system: H3 Ser10 (target of Aurora); assay: H3 Ser10 phosphorylation in DC-allostimulated T-cells (flow cytometry); format: cell-based, human; details: 5-day allogeneic DC stimulation; AJI 750 nM, alisertib 1.75 μM, TG101348 350 nM
Procedure: After 5 days, T cells were then harvested and directly fixed (Cytofix, BD Biosciences) for 10 min at 37° C. After washing with phosphate-buffered saline, the T cells were permeabilized with icecold methanol (90%, v/v) for at least 20 min at -20° C. The cells were stained for expression of CD3 and pH[…].

TH17 = assay: IL-17 ELISPOT of DC-stimulated CD4+ T cells; format: cell-based, human; details: DC-stimulated purified CD4+ T cells
Procedure: Naïve CD4^+ T cells were purified and allostimulated (DC/T cell ratio of 1:30) as reported (B. C. Betts et al., CD4^+ T cell STAT3 phosphorylation precedes acute GVHD, and subsequent TH17 tissue invasion correlates with GVHD severity and therapeutic response. J. Leukocyte Biol. (2015)). Alisertib ([…]), TG101348 (350 nM), both alisertib and TG101348, AJI-214 (750 nM), AJI-100 (750 nM), or DMSO control was added once on day 0. Medium was supplemented with IL-6 (1×10^5 IU/mL), TGF-β (4 ng/mL; R&D Systems), and anti-IFN-γ monoclonal antibody ([…]; eBioscience) to polarize TH17. After 5 days, the T cells were harvested, washed, and then plated at 35,000 cells per well in an IL-17 ELISPOT plate (R&DSystems). The CD4^+ T cells were stimulated with PMA/ionomycin, and the ELISPOT assay was performed according to the manufacturer's instructions.

[3] = test system: xenogeneic GVHD (NSG mice transplanted with human PBMCs); assay: Xenogeneic GVHD model; format: in vivo; details: alisertib 30 mg/kg daily, TG101348 45 mg/kg twice a day, oral gavage day 0 to +14
Text: After transplantation and treatment with either AJI-100 or vehicle control, human T cells were isolated from recipient mouse spleens at day +14, stained for pH3Ser^10 or pSTAT3 (+IL-6 stimulation), and analyzed as described.
NOD scid gamma (NSG) mice (male or female, 6-24 weeks old) were purchased from Jackson Laboratory (Bar Harbor, Me., USA) and raised per an IACUC-approved protocol in adherence to the NIH Guide for the Care and Use of Laboratory Animals. Mice received either (i) alisertib (30 mg/kg daily), TG101348 (45 mg/kg twice a day), a combination of alisertib and TG101348, or vehicle (methylcellulose) by oral gavage or (ii) AJI-100 (50 mg/kg daily) or vehicle (50% polyethylene glycol, 15% 2-hydroxypropyl-b-cyclodextrin, and 10% DMSO in sterile saline) ip from day 0 to day +14.
Mice were monitored for GVHD clinical scores (K. R. Cooke et al., An experimental model of idiopathic pneumonia syndrome after bone marrow transplantation: I. The roles of minor H antigens and endotoxin. Blood 88, 3230 (1996)), weight, and premoribund status. As indicated, mice were euthanized on day +14 to study recipient spleen Tconv, Tregs, TH1, TH17, B cells, and T-cell signal transduction. Human CD4^+ Treg (CD25+, CD127^−, Foxp3^+), Tconv(CD25^+, CD127^+), TH1, TH17, and CD19^+ B cells residing in recipient spleens were quantified by flow cytometry. T-cell pH3 ser10 and PSTAT3 were evaluated by flow cytometry. IL-17 ELISPOTs were performed using isolated human T cells from recipient mouse spleen as described above. Tissue samples were prepared, stained (Ventana Medical Systems, Tucson, Ariz.), and imaged (Vista, Calif., USA) to identify human T-cells as previously described. All vertebrate animal work was IACUC-approved.

GVHD = details: mouse, in vivo; cited from earlier work
Bioavailability = details: in vivo

Compound: CCN(CC)c1ncnc2c1ncn2[C@@H]1O[C@H](COP(=O)(O)OP(=O)(O)C(Br)(Br)P(=O)(O)O)[C@@H](O)[C@H]1O [ARL67156]
- T-cell inhibition by bisanilinopyrimidine (I)/AJI-214 on CD39 blockade ([1]; natural Treg-depleted CD4+ alloMLR, ARL67156 added): significantly weakened
- hydrolysis of ATP by AJI-treated iTregs on CD39 blockade (CD39 on iTreg): significantly impaired

Compound: Cc1cnc(Nc2ccc(OCCN3CCCC3)cc2)nc1Nc1cccc(S(=O)(=O)NC(C)(C)C)c1 [TG101348]
- IC50 ([1]; Homo sapiens, TG101348 and alisertib added together at fixed ratio 1:5, read-out: IC50 of the combination, TG101348 concentration): 0.35 µM
- concentrations reducing alloreactive T-cell proliferation ([1]; alloMLR): ≥ 350 nM
- STAT3 (pSTAT3 Y705) phosphorylation in T-cells (STAT3 (target of JAK2)): only inhibited pSTAT3
- IL-2-induced STAT5 activation/phosphorylation in T-cells (pSTAT5 (Y694)): remained intact
- iTreg:allo Tconv ratio (iTreg): incrementally larger Treg:allo Tconv ratios
- iTreg differentiation / absolute numbers of iTregs (iTreg): less absolute numbers of iTregs and allo Tconv
- suppressive capacity of iTregs generated in presence of inhibitor (iTreg): improved iTreg function compared with DMSO
- RORgammaT expression in alloresponder CD4+ T-cells (RORgammaT): significantly decreases

Compound: COc1cc(Nc2ncc3c(n2)-c2ccc(Cl)cc2C(c2c(F)cccc2OC)=NC3)ccc1C(=O)O [alisertib]
- inhibition at 0.625 µM ([1]; Homo sapiens, T-cell, alisertib 625 nM, read-out: inhibition of proliferative response of T-cells in alloMLRs): 32.5%
- IC50 ([1]; Homo sapiens, T-cell, alisertib alone (Study 2 text), read-out: median inhibitory concentration (IC50), T cells in alloMLRs): 10 µM
- IC50 ([1]; Homo sapiens, T-cell, alisertib alone, read-out: IC50, proliferative response of T-cells in alloMLRs): 10 µM
- IC50 ([1]; Homo sapiens, TG101348 and alisertib added together at fixed ratio 1:5, read-out: IC50 of the combination, alisertib concentration): 1.75 µM
- phosphorylation of histone 3 serine 10 (pH3 Ser10) in T-cells [2]: only inhibited pH3Ser^10
- IL-2-induced STAT5 activation/phosphorylation in T-cells (pSTAT5 (Y694)): remained intact
- iTreg:allo Tconv ratio (iTreg): incrementally larger Treg:allo Tconv ratios
- iTreg differentiation / absolute numbers of iTregs (iTreg): less absolute numbers of iTregs and allo Tconv
- suppressive capacity of iTregs generated in presence of inhibitor (iTreg): superior suppressive capacity
- RORgammaT expression in alloresponder CD4+ T-cells (RORgammaT): no effect
- TH17 (IL-17 ELISPOT) (TH17): no effect
- median survival [3]: 41 days
- onset of GVHD in mice (GVHD): significantly delayed the onset of GVHD

Compound: NC(=O)c1ccc(Nc2ncc(F)c(Nc3ccccc3Cl)n2)cc1 [bisanilinopyrimidine (I)]
- bioavailability (Bioavailability): limited bioavailability
